Test results from PubChem BioAssay (NCI).
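These data come from cells grown in 96-well plates and exposed to compound for 48 hours at five concentrations. Abbreviation: GI50, concentration required for 50% inhibition of growth. TGI denotes the concentration required for complete inhibition of growth.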

Assays:
Experiment in all cases: NCI tumour cell line growth inhibition, 48 h
HOP-62 NSCLC = system: HOP-62 NSCLC
SF-295 CNS = system: SF-295 CNS
EKVX NSCLC = system: EKVX NSCLC
A498 renal = system: A498 renal
SK-MEL-5 melanoma = system: SK-MEL-5 melanoma
IGROV1 ovarian = system: IGROV1 ovarian
RPMI-8226 leukemia = system: RPMI-8226 leukemia
HL-60(TB) leukemia = system: HL-60(TB) leukemia
MALME-3M melanoma = system: MALME-3M melanoma
SF-539 CNS = system: SF-539 CNS
SR leukemia = system: SR leukemia
OVCAR-8 ovarian = system: OVCAR-8 ovarian
UO-31 renal = system: UO-31 renal
NCI-H226 lung = system: NCI-H226 lung
CCRF-CEM leukemia = system: CCRF-CEM leukemia
SNB-19 CNS = system: SNB-19 CNS
MCF7 breast = system: MCF7 breast
OVCAR-4 ovarian = system: OVCAR-4 ovarian
SK-OV-3 ovarian = system: SK-OV-3 ovarian
DU-145 prostate = system: DU-145 prostate
OVCAR-3 ovarian = system: OVCAR-3 ovarian
TK-10 renal = system: TK-10 renal
T-47D breast = system: T-47D breast
786-0 renal = system: 786-0 renal
OVCAR-5 ovarian = system: OVCAR-5 ovarian
A549 NSCLC = system: A549 NSCLC
NCI-H522 lung = system: NCI-H522 lung
K-562 leukemia = system: K-562 leukemia
SNB-75 CNS = system: SNB-75 CNS
NCI-H23 lung = system: NCI-H23 lung
KM12 colon = system: KM12 colon
HCT-116 colon = system: HCT-116 colon
SK-MEL-28 melanoma = system: SK-MEL-28 melanoma
HT29 colon = system: HT29 colon
SW-620 colon = system: SW-620 colon
HCT-15 colon = system: HCT-15 colon
PC-3 prostate = system: PC-3 prostate
M14 melanoma = system: M14 melanoma
UACC-62 melanoma = system: UACC-62 melanoma
MDA-MB-231 breast = system: MDA-MB-231 breast
UACC-257 melanoma = system: UACC-257 melanoma
CAKI-1 renal = system: CAKI-1 renal
NCI/ADR-RES ovarian = system: NCI/ADR-RES ovarian
NCI-H460 lung = system: NCI-H460 lung
U251 CNS = system: U251 CNS
MDA-MB-435 = system: MDA-MB-435
BT-549 breast = system: BT-549 breast
HS 578T breast = system: HS 578T breast
LOX IMVI melanoma = system: LOX IMVI melanoma
MOLT-4 leukemia = system: MOLT-4 leukemia
COLO 205 colon = system: COLO 205 colon
ACHN renal = system: ACHN renal
SF-268 CNS = system: SF-268 CNS
SK-MEL-2 melanoma = system: SK-MEL-2 melanoma
RXF 393 renal = system: RXF 393 renal

Q: What does the source list for `Cc1ccc(/C(=N/NS(=O)(=O)c2ccc([N+](=O)[O-])cc2)Sc2cc(Cl)c(C)cc2S(N)(=O)=O)cc1`?
A: GI50 (HOP-62 NSCLC): > 100 µM; TGI (HOP-62 NSCLC): > 100 µM; GI50 (SF-295 CNS): > 100 µM; TGI (SF-295 CNS): > 100 µM; GI50 (EKVX NSCLC): > 100 µM; TGI (EKVX NSCLC): > 100 µM; GI50 (A498 renal): > 100 µM; TGI (A498 renal): > 100 µM; GI50 (SK-MEL-5 melanoma): > 100 µM; TGI (SK-MEL-5 melanoma): > 100 µM; GI50 (IGROV1 ovarian): > 100 µM; TGI (IGROV1 ovarian): > 100 µM; GI50 (RPMI-8226 leukemia): 11.9 µM; TGI (RPMI-8226 leukemia): > 100 µM; GI50 (HL-60(TB) leukemia): > 100 µM; TGI (HL-60(TB) leukemia): > 100 µM; GI50 (MALME-3M melanoma): 11.9 µM; TGI (MALME-3M melanoma): > 100 µM; GI50 (SF-539 CNS): > 100 µM; TGI (SF-539 CNS): > 100 µM; GI50 (SR leukemia): > 100 µM; TGI (SR leukemia): > 100 µM; GI50 (OVCAR-8 ovarian): > 100 µM; TGI (OVCAR-8 ovarian): > 100 µM; GI50 (UO-31 renal): > 100 µM; TGI (UO-31 renal): > 100 µM; GI50 (NCI-H226 lung): > 100 µM; TGI (NCI-H226 lung): > 100 µM; GI50 (CCRF-CEM leukemia): > 100 µM; TGI (CCRF-CEM leukemia): > 100 µM; GI50 (SNB-19 CNS): > 100 µM; TGI (SNB-19 CNS): > 100 µM; GI50 (MCF7 breast): > 100 µM; TGI (MCF7 breast): > 100 µM; GI50 (OVCAR-4 ovarian): > 100 µM; TGI (OVCAR-4 ovarian): > 100 µM; GI50 (SK-OV-3 ovarian): > 100 µM; TGI (SK-OV-3 ovarian): > 100 µM; GI50 (DU-145 prostate): > 100 µM; TGI (DU-145 prostate): > 100 µM; GI50 (OVCAR-3 ovarian): > 100 µM; TGI (OVCAR-3 ovarian): > 100 µM; GI50 (TK-10 renal): > 100 µM; TGI (TK-10 renal): > 100 µM; GI50 (T-47D breast): > 100 µM; TGI (T-47D breast): > 100 µM; GI50 (786-0 renal): > 100 µM; TGI (786-0 renal): > 100 µM; GI50 (OVCAR-5 ovarian): > 100 µM; TGI (OVCAR-5 ovarian): > 100 µM; GI50 (A549 NSCLC): > 100 µM; TGI (A549 NSCLC): > 100 µM; GI50 (NCI-H522 lung): > 100 µM; TGI (NCI-H522 lung): > 100 µM; GI50 (K-562 leukemia): > 100 µM; TGI (K-562 leukemia): > 100 µM; GI50 (SNB-75 CNS): > 100 µM; TGI (SNB-75 CNS): > 100 µM; GI50 (NCI-H23 lung): > 100 µM; TGI (NCI-H23 lung): > 100 µM; GI50 (KM12 colon): > 100 µM; TGI (KM12 colon): > 100 µM; GI50 (HCT-116 colon): > 100 µM; TGI (HCT-116 colon): > 100 µM; GI50 (SK-MEL-28 melanoma): > 100 µM; TGI (SK-MEL-28 melanoma): > 100 µM; GI50 (HT29 colon): > 100 µM; TGI (HT29 colon): > 100 µM; GI50 (SW-620 colon): > 100 µM; TGI (SW-620 colon): > 100 µM; GI50 (HCT-15 colon): > 100 µM; TGI (HCT-15 colon): > 100 µM; GI50 (PC-3 prostate): 12.5 µM; TGI (PC-3 prostate): > 100 µM; GI50 (M14 melanoma): > 100 µM; TGI (M14 melanoma): > 100 µM; GI50 (UACC-62 melanoma): > 100 µM; TGI (UACC-62 melanoma): > 100 µM; GI50 (MDA-MB-231 breast): 27.3 µM; TGI (MDA-MB-231 breast): > 100 µM; GI50 (UACC-257 melanoma): > 100 µM; TGI (UACC-257 melanoma): > 100 µM; GI50 (CAKI-1 renal): > 100 µM; TGI (CAKI-1 renal): > 100 µM; GI50 (NCI/ADR-RES ovarian): > 100 µM; TGI (NCI/ADR-RES ovarian): > 100 µM; GI50 (NCI-H460 lung): > 100 µM; TGI (NCI-H460 lung): > 100 µM; GI50 (U251 CNS): > 100 µM; TGI (U251 CNS): > 100 µM; GI50 (MDA-MB-435): > 100 µM; TGI (MDA-MB-435): > 100 µM; GI50 (BT-549 breast): > 100 µM; TGI (BT-549 breast): > 100 µM; GI50 (HS 578T breast): > 100 µM; TGI (HS 578T breast): > 100 µM; GI50 (LOX IMVI melanoma): > 100 µM; TGI (LOX IMVI melanoma): > 100 µM; GI50 (MOLT-4 leukemia): > 100 µM; TGI (MOLT-4 leukemia): > 100 µM; GI50 (COLO 205 colon): > 100 µM; TGI (COLO 205 colon): > 100 µM; GI50 (ACHN renal): > 100 µM; TGI (ACHN renal): > 100 µM; GI50 (SF-268 CNS): > 100 µM; TGI (SF-268 CNS): > 100 µM; GI50 (SK-MEL-2 melanoma): > 100 µM; TGI (SK-MEL-2 melanoma): > 100 µM; GI50 (RXF 393 renal): 47.7 µM; TGI (RXF 393 renal): > 100 µM
